≈ marks a conversion by molar mass, not a printed value.
How the values were obtained:
Type in all cases: functional, cell-based
[1] = Cytotoxicity against vincristine-resistant human KB/VJ300 cells
KB [2] = experiment: Reversal of multidrug resistance in vincristine-resistant human KB cells in presence of 0.1 uM vincristine
KB [3] = experiment: Reversal of multidrug resistance in vincristine-resistant human KB cells in presence of 0.121 uM vincristine

Row | SMILES | IC50 [1] | IC50 (KB [2]) | IC50 (KB [3])
1 | CCOC(=O)[C@@H]1[C@@H](O)[C@@]23C=CCN4CC[C@@]5(c6ccccc6N[C@]15CC2)[C@@H]43 [KOPSILOSCINE J] | > 25 µg/mL | 15 µg/mL | 
2 | COC(=O)N1c2c(ccc3c2OCO3)[C@@]23CCN4C[C@@H]5O[C@@H]5[C@]5(CC[C@]12[C@](O)(C(=O)OC)[C@@H]5O)[C@H]43 [KOPSIMALINE A] | > 25 µg/mL |  | 3.9 mM
3 | COC(=O)N1c2c(O)cccc2[C@@]23CCN4C[C@@H]5O[C@@H]5[C@]5(CC[C@]12[C@](O)(C(=O)OC)[C@@H]5O)[C@H]43 [KOPSIMALINE B] | > 25 µg/mL | 13 µg/mL | 
4 | COC(=O)N1c2c(ccc(OC)c2O)[C@@]23CCN4C[C@@H]5O[C@@H]5[C@]5(CC[C@]12[C@](O)(C(=O)OC)[C@@H]5O)[C@H]43 [KOPSIMALINE C] | > 25 µg/mL | 18.2 µg/mL | 
5 | COC(=O)N1c2c(ccc3c2OCO3)[C@@]23CCN4C[C@@H]5O[C@@H]5[C@@]5([C@@H](O)[C@@](O)(C(=O)OC)[C@@]12C[C@@H]5O)[C@H]43 [KOPSIMALINE D] | 25 µg/mL (≈ 49.8 µM) | 9.2 µg/mL | 
6 | COC(=O)N1c2c(OC)cccc2[C@@]23CCN4C[C@@H]5O[C@@H]5[C@]5(CC[C@]12[C@](O)(C(=O)OC)[C@@H]5O)[C@H]43 [KOPSIMALINE E] | > 25 µg/mL | 18 µg/mL | 

From ChEMBL document CHEMBL1142391, “Biologically active aspidofractinine alkaloids from Kopsia singapurensis” (J Nat Prod, 2008)
